Experimental data as given in US20240415819A1, “MACROCYCLIC COMPOUNDS AS PROTEASOME SUBUNIT BETA TYPE-5 INHIBITORS” (Lead Discovery Center GmbH, priority 2021, published 2024).

Experiments:
[1] = molecular target: T1, β5 subunit of the human constitutive proteasome (CPS) (Homo sapiens, UniProt P28074); experiment: β5 inhibition assay, human constitutive proteasome (Suc-LLVY-AMC); assay type: biochemical; details: IC50 class, Suc-LLVY-AMC substrate
T1 construct: purchased Boston Biochem E-360
Description: The enzymatic activity of the β5 subunit of the human constitutive proteasome (CPS) is analyzed. In another assay, which differs from the assay of the human constitutive proteasome only in using the human immunoproteasome (IPS) the enzymatic activity of the β5 subunit of the human immunoproteasome (IPS) is analyzed. […] Inhibition is indicated as IC50 [nM] (“-”=not measured).

[2] = test system: RPMI 8226 (B lymphocyte cell line, multiple myeloma); experiment: 48 hr CTG viability assay, RPMI 8226; assay type: cell-based; details: Homo sapiens, RPMI-8226; 48 hr CTG; read-out: RPMI-8226 IC50
Description: (§1) A viability assay was conducted for 48 hours to evaluate the inhibition of cancer cell growth by proteasome inhibitors. Briefly, the candidate cell line was plated with a 96-well plate following density of cells, respectively. 6×10^3 Cells/well for A2780 (human ovarian cancer cell line) and MDA-MB-468 (breast carcinoma), 8×10^3 Cells/well for Hs746T (human gastric carcinoma cell line), 1.1×10^4 Cells/well for MM1 S and RPMI 8226 (multiple myeloma). After 24 hours, the cells were treated with various concentrations of the compound (ranging from 0.0015 uM to 10 uM). […] After 48 hours of incubation at 37° C., 5% CO2 incubator, cells were analyzed for viability using the CellTiter-Glo Luminescent Cell Viability assay (Promega, Cat #G7570). All viability assays were performed in duplicate and Luminescence was read using an Envision (Perkin Elmer, USA). Data were analyzed using XLfit software. […] (human gastric carcinoma cell line), MM1 S (B lymphoblast cell line), and RPMI 8226 (B lymphocyte cell line, multiple myeloma). Inhibition is indicated as IC50 [nM] (“-”=not measured).

[3] = test system: Hs 746T (human gastric carcinoma cell line); experiment: 48 hr CTG viability assay, Hs 746T; assay type: cell-based; details: Hs746T, 48 hr CTG, read-out: Hs 746T IC50
Description: as §1

[4] = molecular target: T2, β5 subunit of the human immunoproteasome (IPS) (Homo sapiens, UniProt P28062); experiment: β5 inhibition assay, human immunoproteasome (Suc-LLVY-AMC); assay type: biochemical; details: IC50 class, Suc-LLVY-AMC substrate
T2 construct: purchased Boston Biochem E-370
In short: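 Human immunoproteasome (1 nM final) was preincubated 10 min at RT with compound in 100 mM HEPES pH 7.5, 50 mM NaCl, 0.02% SDS, 1 mM DTT. Suc-LLVY-AMC (22.6 μM final) was then added for 4 h at RT in the dark. After stopping with 1 μM bortezomib, AMC fluorescence was read (ex 355/em 460 nm).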

[5] = test system: MM1 S (B lymphoblast cell line); experiment: 48 hr CTG viability assay, MM1S; assay type: cell-based; details: Homo sapiens, 48 hr CTG, read-out: MM1S IC50
Description: as §1

[6] = test system: A549 (human lung carcinoma cell line); experiment: Glo assay of A549 cells (Table 3; ProteasomeGlo plating scheme); assay type: cell-based; details: Homo sapiens; A549 cells; read-out: PGLo A549
In short: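 Luminescent read-out of cellular chymotrypsin-like proteasome activity: cells exposed to compound 105 min at 37° C., 5% CO2, then given Suc-LLVY-Glo reagent, shaken 2-5 min and kept dark 10-15 min before reading. Values are IC50 [nM].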

Row | SMILES | IC50 [1] | IC50 [2] | IC50 [3] | IC50 [4] | IC50 [5] | IC50 [6]
1 | Cc1ccc2cc1CNC(=O)[C@H](CCc1ccccc1)NC(=O)[C@@H](NC(=O)Cc1ccccc1)CCOC(=O)N1CCCC(CCO2)C1 (stereo partly drawn) [Compound 624, N-((9S,12S)-5^4-methyl-8,11,16-trioxo-9-phenethyl-4,15-dioxa-7,10-diaza-1(3,1)-piperidina-5(1,3)-benzenacyclohexadecaphane-12-yl)-2-phenylacetamide] | < 0.1 µM | < 0.1 µM | < 0.1 µM | < 0.1 µM | < 0.1 µM | < 0.1 µM
2 | Cc1ccc2cc1CNC(=O)[C@H](CCc1ccccc1)NC(=O)[C@@H](NCC(F)(F)F)CC(=O)N1CCCC(CCO2)C1 (stereo partly drawn) [Compound 709, (9S,12S)-5^4-methyl-9-phenethyl-12-((2,2,2-trifluoroethyl)amino)-4-oxa-7,10-diaza-1(3,1)-piperidina-5(1,3)-benzenacyclotetradecaphane-8,11,14-trione] | < 0.1 µM | < 0.1 µM | 0.1 to 0.5 µM | < 0.1 µM | < 0.1 µM | < 0.1 µM
3 | Cc1ccc2cc1CNC(=O)[C@H](CCc1ccccc1)NC(=O)[C@@H](N1CCCC1)CC(=O)N1CCCC(CCO2)C1 (stereo partly drawn) [Compound 731, (9S,12S)-5^4-methyl-9-phenethyl-12-(pyrrolidin-1-yl)-4-oxa-7,10-diaza-1(3,1)-piperidina-5(1,3)-benzenacyclotetradecaphane-8,11,14-trione] | 0.1 to 0.5 µM | 0.5 to 1 µM | 1 to 5 µM | < 0.1 µM | 0.1 to 0.5 µM | 1 to 5 µM
4 | Cc1ccc2cc1CNC(=O)[C@H](CCc1ccccc1)NC(=O)[C@@H](NC(=O)N1CCC(C)(O)CC1)CC(=O)N1CCCC(CCO2)C1 (stereo partly drawn) [Compound 676, 4-hydroxy-4-methyl-N-((9S,12S)-5^4-methyl-8,11,14-trioxo-9-phenethyl-4-oxa-7,10-diaza-1(3,1)-piperidina-5(1,3)-benzenacyclotetradecaphane-12-yl)piperidine-1-carboxamide] | < 0.1 µM | < 0.1 µM | < 0.1 µM | < 0.1 µM | < 0.1 µM | < 0.1 µM
5 | COc1cccc(COCCC(=O)N[C@H]2CC(=O)N3CCCC(CCOc4ccc(C)c(c4)CNC(=O)[C@H](CCc4ccccc4)NC2=O)C3)c1 (stereo partly drawn) [Compound 585, 3-((3-methoxybenzyl)oxy)-N-((9S,12S)-5^4-methyl-8,11,14-trioxo-9-phenethyl-4-oxa-7,10-diaza-1(3,1)-piperidina-5(1,3)-benzenacyclotetradecaphane-12-yl)propanamide] | < 0.1 µM | < 0.1 µM | < 0.1 µM | < 0.1 µM | < 0.1 µM | < 0.1 µM
6 | COc1ccccc1OCCC(=O)N[C@H]1CC(=O)N2CCCC(CCOc3ccc(C)c(c3)CNC(=O)[C@H](CCc3ccccc3)NC1=O)C2 (stereo partly drawn) [Compound 588, 3-(2-methoxyphenoxy)-N-((9S,12S)-5^4-methyl-8,11,14-trioxo-9-phenethyl-4-oxa-7,10-diaza-1(3,1)-piperidina-5(1,3)-benzenacyclotetradecaphane-12-yl)propanamide] | < 0.1 µM | < 0.1 µM | < 0.1 µM | < 0.1 µM | < 0.1 µM | < 0.1 µM
7 | Cc1ccc2cc1CNC(=O)[C@H](CCc1ccccc1)NC(=O)[C@@H](NC(=O)CCN1CC3(CCC3)C1)CC(=O)N1CCCC(CCO2)C1 (stereo partly drawn) [Compound 659, N-((9S,12S)-5^4-methyl-8,11,14-trioxo-9-phenethyl-4-oxa-7,10-diaza-1(3,1)-piperidina-5(1,3)-benzenacyclotetradecaphane-12-yl)-3-(2-azaspiro[3.3]heptan-2-yl)propanamide] | < 0.1 µM | < 0.1 µM | < 0.1 µM | < 0.1 µM | < 0.1 µM | < 0.1 µM
8 | Cc1ccc2cc1CNC(=O)[C@H](CCc1ccccc1)NC(=O)[C@@H](NC(=O)CCOCCC1CCCC1)CC(=O)N1CCCC(CCO2)C1 (stereo partly drawn) [Compound 623, 3-(2-cyclopentylethoxy)-N-((9S,12S)-5^4-methyl-8,11,14-trioxo-9-phenethyl-4-oxa-7,10-diaza-1(3,1)-piperidina-5(1,3)-benzenacyclotetradecaphane-12-yl)propanamide] | < 0.1 µM | < 0.1 µM | < 0.1 µM | < 0.1 µM | < 0.1 µM | < 0.1 µM
9 | Cc1ccc2cc1CNC(=O)[C@H](CCc1ccccc1)NC(=O)[C@@H](NC1CCC1)CC(=O)N1CCCC(CCO2)C1 (stereo partly drawn) [Compound 717, (9S,12S)-12-(cyclobutylamino)-5^4-methyl-9-phenethyl-4-oxa-7,10-diaza-1(3,1)-piperidina-5(1,3)-benzenacyclotetradecaphane-8,11,14-trione] | < 0.1 µM | 0.1 to 0.5 µM | 0.1 to 0.5 µM | < 0.1 µM | 0.1 to 0.5 µM | < 0.1 µM
10 | CC(=O)N1CC(CC(=O)N[C@H]2CC(=O)N3CCCC(CCOc4ccc(C)c(c4)CNC(=O)[C@H](CCc4ccccc4)NC2=O)C3)C1 (stereo partly drawn) [Compound 697, 2-(1-acetylazetidin-3-yl)-N-((9S,12S)-5^4-methyl-8,11,14-trioxo-9-phenethyl-4-oxa-7,10-diaza-1(3,1)-piperidina-5(1,3)-benzenacyclotetradecaphane-12-yl)acetamide] | < 0.1 µM | < 0.1 µM | < 0.1 µM | < 0.1 µM | < 0.1 µM | < 0.1 µM
11 | Cc1ccc2cc1CNC(=O)[C@H](CCc1ccc(N)cc1)NC(=O)[C@@H](NC(=O)Cc1cn3ccsc3n1)CC(=O)N1CCCC(CCO2)C1 (stereo partly drawn) [Compound 708, N-((9S,12S)-9-(4-aminophenethyl)-5^4-methyl-8,11,14-trioxo-4-oxa-7,10-diaza-1(3,1)-piperidina-5(1,3)-benzenacyclotetradecaphane-12-yl)-2-(imidazo[2,1-b]thiazol-6-yl)acetamide] | < 0.1 µM | < 0.1 µM | < 0.1 µM | < 0.1 µM | < 0.1 µM | < 0.1 µM
12 | COc1ccc(OCCC(=O)N[C@H]2CC(=O)N3CCCC(CCOc4ccc(C)c(c4)CNC(=O)[C@H](CCc4ccccc4)NC2=O)C3)cc1 (stereo partly drawn) [Compound 622, 3-(4-methoxyphenoxy)-N-((9S,12S)-5^4-methyl-8,11,14-trioxo-9-phenethyl-4-oxa-7,10-diaza-1(3,1)-piperidina-5(1,3)-benzenacyclotetradecaphane-12-yl)propanamide] | < 0.1 µM | < 0.1 µM | < 0.1 µM | < 0.1 µM | < 0.1 µM | < 0.1 µM
13 | Cc1ccc2cc1CNC(=O)[C@H](CCc1ccccc1)NC(=O)[C@@H](NC(=O)CC1COC1)CC(=O)N1CCCC(CCO2)C1 (stereo partly drawn) [Compound 635, N-((9S,12S)-5^4-methyl-8,11,14-trioxo-9-phenethyl-4-oxa-7,10-diaza-1(3,1)-piperidina-5(1,3)-benzenacyclotetradecaphane-12-yl)-2-(oxetan-3-yl)acetamide] | < 0.1 µM | < 0.1 µM | < 0.1 µM | < 0.1 µM | < 0.1 µM | < 0.1 µM
